Laboratory results taken from patent US7893046B2, “Therapeutic or prophylactic agent for leukemia” (Toray Industries, Inc., priority 2006, dated 2011).

Assays:
Assay type in all cases: in vivo
[1] = test system: leukemia cells (1629B cells) in bone marrow; experiment: Proliferation of leukemia cells in bone marrow in mouse leukemia model (PCR of neomycin resistance gene)
Experimental: Neomycin resistance gene, a marker gene for 1629B cells, was used as an index of leukemia cells (1629B cells) in bone marrow and the gene level was determined, thereby detecting the number of leukemia cells in bone marrow.
For the amplification of neomycin resistance gene, primers were prepared and PCR (reaction condition: 32 cycles of 95° C. for 30 sec, 60° C. for 30 sec, and 72° C. for 1 min) was performed using DNA extracted from bone marrow cells as a template. After the reaction, the image of PCR bands was analyzed using Gel-Pro Analyzer (MediaCybernetics).

[2] = test system: mouse leukemia cell line 1629B; experiment: Mouse leukemia model, survival time and leukocytes in peripheral blood, dosing from Day 21 after transfer of 1629B cells; settings: SCID mice, 100 mg/kg orally every day from Day 21 after transfer; for reduction ratio of increase in the number of leukocytes in peripheral blood: Day 35 after the transfer; for survival time prolonged to (Day after the transfer of leukemia cells): untreated mice died on Day 36
Experimental: This method was carried out in accordance with the literature “Cancer Cell., 4, 55-65 (2003)”.
Cells of mouse leukemia cell line 1629B were transferred into 8-week-old female SCID mice (CLEA Japan, Inc.) to develop leukemia. The compounds described in Examples 77, 78 and 84 were orally administered, respectively, at a dose of 100 mg/kg every day from Day 21 after the transfer of 1629B cells.

[3] = test system: mouse leukemia cell line 1629B; experiment: Mouse leukemia model, survival rate and leukocytes in peripheral blood, dosing from the time of 1629B cell transfer; settings: SCID mice, 100 mg/kg orally every day from 1629B transfer
Experimental: This method was carried out in accordance with the literature “Cancer Cell., 4, 55-65 (2003)”. Cells of mouse leukemia cell line 1629B were transferred into 8- or 9-week-old female SCID mice (CLEA Japan, Inc.) to develop leukemia. The compounds described in Examples 80, 81 and 83 were orally administered, respectively, at a dose of 100 mg/kg every day from the time when 1629B cells were transferred.

[4] = leukemia mice of Example 89 (100 mg/kg orally from Day 21 after transfer)
[5] = leukemia mice of Example 88 (100 mg/kg orally from the time of transfer)
[6] = Day 43 after the transfer of leukemia cells

| Compound | reduction ratio of increase in the number of leukemia cells in bone marrow [1, 4] [%] | reduction ratio of increase in the number of leukocytes in peripheral blood [2] [%] | survival time prolonged to (Day after the transfer of leukemia cells) [2] [days] | reduction ratio of increase in the number of leukemia cells in bone marrow [1, 5] [%] | reduction ratio of increase in the number of leukocytes in peripheral blood ([3]; Day 43 after the transfer) [%] | survival rate [3, 6] [%] | reduction ratio of increase in the number of leukocytes in peripheral blood ([3]; Day 51 after the transfer) [%] | survival rate ([3]; Day 51 after the transfer of leukemia cells) [%] |
| --- | --- | --- | --- | --- | --- | --- | --- | --- |
| COC1(c2ccc(/C=C/C[C@H](NC(=O)c3c(Cl)cccc3Cl)C(=O)O)cc2)CCOCC1 [Example 77, (S,E)-2-(2,6-Dichlorobenzamido)-5-[4-(4-methoxytetrahydropyran-4-yl)-phenyl]pent-4-enoic Acid] | 49.3 | 41.2 | 43 | – | – | – | – | – |
| COC1(c2ccc(/C=C/C[C@H](NC(=O)c3c(Cl)cccc3Cl)C(=O)[O-])cc2)CCOCC1.[Na+] [Example 78, (S,E)-2-(2,6-Dichlorobenzamido)-5-[4-(4-methoxytetrahydropyran-4-yl)-phenyl]pent-4-enoic Acid Sodium Salt] | 41.7 | 41.0 | 43 | – | – | – | – | – |
| CN(c1ccc(/C=C/C[C@H](NC(=O)c2c(Cl)cccc2Cl)C(=O)O)cc1)c1ncccn1 [Example 80, (S,E)-2-(2,6-Dichlorobenzamido)-5-[4-(methyl-pyrimidin-2-ylamino)phenyl]pent-4-enoic Acid] | – | – | – | 45.9 | 61.6 | 75.0 | – | – |
| CN(c1ccc(/C=C/C[C@H](NC(=O)c2c(Cl)cccc2Cl)C(=O)[O-])cc1)c1ncccn1.[Na+] [Example 81, (S,E)-2-(2,6-Dichlorobenzamido)-5-[4-(methyl-pyrimidin-2-ylamino)phenyl]pent-4-enoic Acid Sodium Salt] | – | – | – | 50.8 | – | – | 60.8 | 62.5 |
| CC(C)N(c1ccc(/C=C/C[C@H](NC(=O)c2c(Cl)cccc2Cl)C(=O)O)cc1)c1ncccn1 [Example 83, (S,E)-2-(2,6-Dichlorobenzamido)-5-[4-(isopropyl-pyrimidin-2-ylamino)phenyl]pent-4-enoic Acid] | – | – | – | 46.1 | 53.1 | 75.0 | – | – |
| CC(C)N(c1ccc(/C=C/C[C@H](NC(=O)c2c(Cl)cccc2Cl)C(=O)[O-])cc1)c1ncccn1.[Na+] [Example 84, (S,E)-2-(2,6-Dichlorobenzamido)-5-[4-(isopropyl-pyrimidin-2-ylamino)phenyl]pent-4-enoic Acid Sodium Salt] | 45.6 | 49.8 | 43 | – | – | – | – | – |
